Source: the OPERA property sets (Mansouri et al. 2018)
Values after ≈ are worked out from the molar mass of the structure shown.

Details: not given

Compound	logP
COC(=O)CS(=O)(=O)c1ccccc1	0.93
COC(=O)C1(S(=O)(=O)c2ccc(C)cc2)CCCCC1	2.54
COC(=O)CS(=O)(=O)c1ccc(Br)cc1	1.52
COC(=O)CS(=O)(=O)c1ccc(Cl)cc1	1.31
Cc1ccc(S(=O)(=O)C2(C(=O)OC(C)C)CCCC2)cc1	2.88
CC(C)OC(=O)CS(=O)(=O)c1ccc(Cl)cc1	2.04

Same assay, conditions: 25 °C

solubility [µM]	Compound
1320 (≈ 335 µg/mL)	COC(=O)C1(S(=O)(=O)c2ccc(C)cc2)CC1
282 (≈ 93.9 µg/mL)	COC(=O)C1(S(=O)(=O)c2ccc(Br)cc2)CCC1
33.2 (≈ 12 µg/mL)	COC(=O)C1(S(=O)(=O)c2ccc(Br)cc2)CCCCC1
999 (≈ 254 µg/mL)	COC(=O)C1(S(=O)(=O)c2ccccc2)CCC1
97.6 (≈ 33.9 µg/mL)	COC(=O)C1(S(=O)(=O)c2ccc(Br)cc2)CCCC1
214 (≈ 68.2 µg/mL)	COC(=O)C1(S(=O)(=O)c2ccc(Br)cc2)CC1
1410 (≈ 399 µg/mL)	COC(=O)C1(S(=O)(=O)c2ccccc2)CCCCC1
5490 (≈ 1320 µg/mL)	COC(=O)C1(S(=O)(=O)c2ccccc2)CC1
1000 (≈ 289 µg/mL)	COC(=O)C1(S(=O)(=O)c2ccc(Cl)cc2)CCC1
2820 (≈ 756 µg/mL)	COC(=O)C1(S(=O)(=O)c2ccccc2)CCCC1
491 (≈ 135 µg/mL)	COC(=O)C1(S(=O)(=O)c2ccc(Cl)cc2)CC1

The remaining lines, values behind:

Compound	solubility [µM]
CC(C)OC(=O)C1(S(=O)(=O)c2ccc(Cl)cc2)CC1	288 (≈ 87.3 µg/mL)
CC(C)OC(=O)C1(S(=O)(=O)c2ccc(Cl)cc2)CCCC1	22.4 (≈ 7.41 µg/mL)
Cc1ccc(S(=O)(=O)C2(C(=O)OC(C)C)CC2)cc1	588 (≈ 166 µg/mL)
CCOC(=O)C1(S(=O)(=O)c2ccc(C)cc2)CC1	976 (≈ 262 µg/mL)
COC(=O)C1(S(=O)(=O)c2ccc([N+](=O)[O-])cc2)CC1	417 (≈ 119 µg/mL)
CC(C)(C)OC(=O)C1(S(=O)(=O)c2ccc(Cl)cc2)CC1	75.8 (≈ 24 µg/mL)
CC(C)OC(=O)C1(S(=O)(=O)c2ccc([N+](=O)[O-])cc2)CCCCCC1	8.5 (≈ 3.14 µg/mL)
CCOC(=O)C1(S(=O)(=O)c2ccc(C)cc2)CCC1	1100 (≈ 310 µg/mL)
CC(C)OC(=O)C1(S(=O)(=O)c2ccc([N+](=O)[O-])cc2)CC1	54.9 (≈ 17.2 µg/mL)
CC(C)OC(=O)C1(S(=O)(=O)c2ccc([N+](=O)[O-])cc2)CCC1	174 (≈ 56.9 µg/mL)
